From publication PMC11436758, “Computer-aided drug design to generate a unique antibiotic family” (Nature Communications, 2024)
Converted amounts (≈) assume the structure as drawn.

Legend:
MRSA (ATCC 33591) [1] = assay: MIC, CLSI broth microdilution; type: cell-based, S. aureus; details: three individual replicates
Protocol: The medium employed for the assay was Mueller Hinton II Broth (MHB II; Becton-Dickinson, Sparks, MD, USA). Agar plates used for the organisms were trypticase soy agar plus 5% sheep blood (BD; Sparks, MD, USA). MIC assay plates were prepared using the CLSI broth microdilution procedure. Automated liquid handlers (Multidrop 384, Biomek 2000 and Biomek FX) were used to conduct serial dilutions and liquid transfers. A standardized inoculum of each organism was prepared per CLSI methods. Suspensions were prepared to equal a 0.5 McFarland standard, followed by a 1:20 dilution in test media. The inocula were dispensed into sterile reservoirs divided by length (Beckman Colter) and the Biomek 2000 was used to inoculate the plates. Daughter plates were placed on the Biomek 2000 work surface in reverse orientation so that inoculation took place from low to high drug concentration. The Biomek 2000 delivered 10 μL of the diluted suspension into each well. These inoculations yielded a final cell concentration in the daughter plates of ~5 × 10^5 colony-forming units/mL in each well. The wells of the daughter plates ultimately contained 185 μL of broth, 5 μL of drug solution, and 10 μL of bacterial inoculum. Plates were covered with a sterile lid on the top plate, placed in plastic bags, and incubated at 35 °C for ~18 h. The microplates were viewed from the bottom using a plate viewer and the MIC was read. The MIC was recorded as the lowest concentration of drug that inhibited visible growth of the organism. Uninoculated solubility control plates were also observed for evidence of drug precipitation.

AcpS = AcpS (Escherichia coli, UniProt P24224); assay: AcpS enzyme activity inhibition (IC50) by DNM compounds, [3H]acetyl-CoA / apo-ACP assay; type: biochemical; details: three individual replicates
AcpS, sequence (P24224 2-126): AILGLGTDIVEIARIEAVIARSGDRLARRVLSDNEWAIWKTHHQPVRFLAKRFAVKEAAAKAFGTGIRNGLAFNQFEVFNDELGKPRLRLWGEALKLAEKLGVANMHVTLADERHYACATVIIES
Description: The acpP gene encoding ACP was amplified from E. coli genomic DNA and subcloned into the pGEX4T-1 vector. This construct drives the expression of glutathione S-transferase (GST) fused to the ACP open reading frame through a linker containing a consensus sequence for thrombin cleavage. The identity and veracity of acpP was verified by DNA sequencing. BL21 E. coli cells expressing GST-ACP were suspended in ice-cold phosphate buffer saline (PBS) and lysed by sonication. The lysate was made 1% Triton X-100 and rested on ice for 30 min with occasional mixing. A clear supernatant was isolated by centrifugation at 46,000 × g for 30 min, brought to 10 mM MgCl2 and 2 mM MnCl2 and incubated at room temperature for 1 h with occasional mixing. The supplementation of the lysate to 10 mM MgCl2 and 2 mM MnCl2 favors the activity of endogenous ACP phosphodiesterase (acpH) enriching the apo- fraction of GST-ACP. GST-ACP was affinity purified upon binding to glutathione-sepharose. The ACP moiety was eluted from the affinity resin by in-column thrombin digestion. Apo-ACP was separated from holo-ACP and acylated forms of ACP by ion-exchange chromatography on a Mono-Q 5/50 GL at pH 6.1 operated from an AKTA Pure 25 platform. The purity of the apo-ACP preparation was assessed by 20% PAGE on native gels containing 0.5 M urea.
The acpS gene was amplified from S. aureus and E. coli genomic DNA and inserted into a pET23b vector using standard recombinant DNA methodology such that the protein product would result in addition of a C-terminal 6x-His tag in frame with the AcpS open reading frames. The DNA sequences inserted in the vector were sequenced and found to be identical to the known E. coli and S. aureus acpS open reading frames. Recombinant His-Tagged AcpS expression was induced by IPTG addition and overnight culture. Cell lysate was obtained by sequential aspiration through 16, 18 and 21 G needles in a buffer of 50 mM Tris-HCl (pH 8.5), 10 mM MgCl2, 2 mM DTT, 5% glycerol, and further adjusted to pH 8.1 with MES. […] In a typical AcpS enzyme activity assay, 57 µM [^3H]acetyl-CoA, 2 µg apo-ACP, 10 mM MgCl2, 5 mM DTT, 50 mM Na phosphate (pH 7.0), and AcpS in a final volume of 10 µL were incubated at room temperature in a 1.5 mL microcentrifuge tube. At 5, 10, 15, and 20 min 2 µL of reaction were added to 750 µl 10% TCA on ice. Bovine serum albumin (BSA; 20 µl of a 25 mg/mL solution) was then added to facilitate precipitation of radiolabeled protein. The samples were centrifuged at 12,000 × g for 5 min. Supernatants were removed, and the pellets were rinsed twice with 750 µl of 10% trichloroacetic acid. Pellets were resuspended in 50 µl of formic acid and transferred to scintillation vials. 2 mL of scintillation fluid was added, and the amount of [^3H]-labeled holo-ACP formed was quantified by liquid scintillation counting. The enzymatic reaction proceeded in a linear manner depending on time (10–40 min) and enzyme concentration (1–5 nM). Routinely, each data point was determined at least by triplicate.

MRSA (ATCC 33591) [2] = assay: Rabbit ischemic ear wound model of infection by MRSA, topical treatment; type: in vivo, New Zealand White rabbits; details: for reduction in bacterial survival as compared to vehicle control: quantitative microbiology at day 14, topical; for wound closure: topical for 14 days, versus vehicle control
Protocol: New Zealand White rabbits from Charles River were employed for this study. Both male and female rabbits were used; sample size prevented disaggregation of data by sex. Investigators were blinded to group allocation, data collection, and data analysis. Food and water were given ad libidum and animals were acclimatized for 7 days with photoperiods of alternating 12 h light and dark at 21 °C in relative humidity of 40–50%. The formulation for delivery of DNM compounds was Glaxal base (WellSpring Pharmaceutical Canada Corp., Oakville, Canada). Formulation was performed by dissolving compound in Glaxal base to give final concentrations of 1% or 2% DNM compound (w/v). The analgesic (Buprenex 0.02 mg/kg sc) and anesthesia (isoflurane (0.5–5% with oxygen carrier 0.5–2 L/min) were used as required during procedures. An ischemia wound healing model was conducted surgically. Each wound was inoculated with 50 μl of 2 × 10^7 CFU/mL MRSA (ATCC #33591) and dressed. After 1 day, wounds were treated with either 50 μl control cream containing vehicle or 50 μl cream containing compound daily. Wounds were assessed and observations recorded using the Draize scoring system. Digital photographs of each wound were obtained and documented.

| Structure (SMILES) | MIC (MRSA (ATCC 33591) [1]) [µg/mL] | IC50 (AcpS) [µM] | reduction in bacterial survival as compared to vehicle control (MRSA (ATCC 33591) [2]) [%] | wound closure (MRSA (ATCC 33591) [2]) |
| --- | --- | --- | --- | --- |
| Clc1ccc(-c2cc(-c3nnn[nH]3)c(-c3ccc(Cl)cc3)s2)cc1 [DNM0213] | 2 (≈ 5.36 µM) |  |  |  |
| Cc1ccc(-c2cc(-c3nnn[nH]3)cc(-c3ccc(C)c4ccccc34)c2)c2ccccc12 [DNM0461] | 0.5 (≈ 1.17 µM) |  |  |  |
| c1ccc(-c2ccccc2-c2cc(-c3nnn[nH]3)cc(-c3ccccc3-c3ccccc3)c2)cc1 [DNM0464] | 0.5 (≈ 1.11 µM) | 9 |  |  |
| Clc1ccc(-c2sc(-c3ccccc3-c3ccccc3)cc2-c2nnn[nH]2)cc1 [DNM0466] | 1 (≈ 2.41 µM) | 9 |  |  |
| Cc1ccc(-c2sc(-c3ccccc3-c3ccccc3)cc2-c2nnn[nH]2)c2ccccc12 [DNM0472] | 2 (≈ 4.5 µM) | 10 |  |  |
| Cc1ccc(-c2sc(-c3ccc(Cl)cc3)cc2-c2nnn[nH]2)c2ccccc12 [DNM0473] | 2 (≈ 4.96 µM) | 10 |  |  |
| Cc1ccc(-c2cc(-c3nnn[nH]3)c(-c3ccccc3-c3ccccc3)s2)c2ccccc12 [DNM0478] | 1 (≈ 2.25 µM) | 8 |  |  |
| Clc1ccc(-c2cc(-c3nnn[nH]3)cc(-c3ccccc3-c3ccccc3)c2)cc1 [DNM0479] | 1 (≈ 2.45 µM) | 9 |  |  |
| Cc1ccc(-c2cc(-c3ccc(Cl)cc3)cc(-c3nnn[nH]3)c2)c2ccccc12 [DNM0480] | 2 (≈ 5.04 µM) | 8 |  |  |
| Clc1ccc(-c2cc(-c3nnn[nH]3)sc2-c2ccc(Cl)cc2)cc1 [DNM0487] | 2 (≈ 5.36 µM) | 1 | > 99 | significantly improved wound closure |
| Cc1cc(Cl)ccc1-c1cc(-c2nnn[nH]2)sc1-c1ccc(Cl)cc1C [DNM0488] | 2 (≈ 4.98 µM) | 9 |  |  |
| c1ccc(-c2ccccc2-c2cc(-c3nnn[nH]3)sc2-c2ccccc2-c2ccccc2)cc1 [DNM0489] | 2 (≈ 4.38 µM) | 10 |  |  |
| Clc1cccc(-c2ccccc2-c2cc(-c3nnn[nH]3)cc(-c3ccccc3-c3cccc(Cl)c3)c2)c1 [DNM0493] | 2 (≈ 3.85 µM) | 14 |  |  |
| Cc1ccc(-c2ccccc2-c2cc(-c3nnn[nH]3)c(-c3ccccc3-c3ccc(C)c(C)c3)s2)cc1C [DNM0495] | 2 (≈ 3.9 µM) | 10 |  |  |
| c1ccc2c(c1)oc1c(-c3cc(-c4nnn[nH]4)sc3-c3cccc4c3oc3ccccc34)cccc12 [DNM0542] | 1 (≈ 2.06 µM) | 12 |  |  |
| CC(C)(C)c1ccc(-c2cc(-c3nnn[nH]3)sc2-c2ccc(C(C)(C)C)cc2)cc1 [DNM0546] | 2 (≈ 4.8 µM) | 16 |  |  |
| CC(C)c1cc(Cl)ccc1-c1cc(-c2nnn[nH]2)sc1-c1ccc(Cl)cc1C(C)C [DNM0548] | 2 (≈ 4.37 µM) | 8 |  |  |
| c1ccc(-c2cc(-c3nnn[nH]3)sc2-c2ccccc2-c2ccsc2)c(-c2ccsc2)c1 [DNM0559] | 1 (≈ 2.13 µM) | 9 |  |  |
| CC(C)c1cc(Cl)ccc1-c1cc(C(=O)O)sc1-c1ccc(Cl)cc1C(C)C [DNM0566] | 1 (≈ 2.31 µM) | 13 |  |  |
| Clc1ccc(Cc2sc(-c3nnn[nH]3)cc2-c2cccc(CC3CCCC3)c2)cc1 [DNM0610] | 1 (≈ 2.3 µM) | 9 |  |  |
| Cc1cc(Cl)ccc1-c1sc(-c2nnn[nH]2)c(C)c1-c1ccc(Cl)cc1C [DNM0614] | 1 (≈ 2.41 µM) | 13 | > 99 | significantly improved wound closure |
| CCCCc1cccc(-c2cc(-c3nnn[nH]3)sc2Cc2ccccc2)c1 [DNM0626] | 0.5 (≈ 1.34 µM) | 9 |  |  |
| CCCCc1cccc(-c2sc(-c3nnn[nH]3)c(C)c2-c2cccc(CCCC)c2)c1 [DNM0627] | 0.25 (≈ 0.581 µM) | 10 |  |  |
| Cc1ccc(-c2cc(-c3nnn[nH]3)sc2[C@@H]2CCCc3ccccc32)c2ccccc12 [DNM0636] | 2 (≈ 4.73 µM) | 13 |  |  |
